For test [1], the system named is HEK293 cells. Kind of test: Intracellular NAD+ in HEK293 cells after NaMN or NR (diaphorase-based assay). It is filed as cell-based, human. The following applies: HEK293, 1 mM, 8 h incubation, FIG. 1. On the procedure: (§1) The ability of nicotinic acid mononucleotide, NaMN, to serve as an NAD^+ enhancing agent in mammalian cell lines, Neuro2a and HEK293 cells was examined after an 8 h incubation. NaMN was added to cell growth media at a concentration of 1 mM. All cell treatments were done in duplicate. Nicotinamide riboside (NR) at 1 mM concentration was performed as a positive control. Untreated cells served as negative controls. Cells were treated for the allotted time then harvested by trysin detachment and pelleting. Cells were counted by haemocytometer and then lysed by treatment with 100 μL perchloric acid (7%). Lysates were then neutralized by treatment with NaOH and K2PO4 solutions. NAD^+ concentrations were determined by a diaphorase-based assay. NAD^+ standards were also run to establish a standard curve. The results are graphically depicted in FIG. 1.

Test [2] has as its system Neuro2a cells. Kind of test: Intracellular NAD+ in Neuro2a cells after NaMN or NR (diaphorase-based assay). In kind it is cell-based. The following applies: 1 mM, 8 h incubation, FIG. 1. As for the experimental part: as §1
The subject of test [3] is HEK-293 cells. Kind of test: NAD+ concentration in HEK-293 cells after 24 h EtNaMN (NAD+ cycling assay). It is filed as cell-based, human. On the procedure:
HEK-293 cells were treated with 0 μM, 250 μM, and 500 μM of ((2R,3R,4S,5R)-3,4-dihydroxy-5-(3-(ethoxycarbonyl)pyridin-1-ium-1-yl)tetrahydrofuran-2-yl)methyl hydrogen phosphate (EtNaMN) at an initial density of 500,000 cells per well. After 24 h treatment, the NAD^+ concentration was determined using a known NAD^+ cycling assay (Jacobson, E. L. et al., Arch. Biochem. Biophys., 175: 627-634 (1976)). The cells were washed with PBS, counted by haemocytometry and pelleted. The cells were then treated with 7% perchloric acid, and then neutralized with 1 M NaOH and 500 mM potassium phosphate pH 8.5. NAD^+ contents were then measured on a plate reader using diaphorase and lactate dehydrogenase using Resazurin as a dye that is reduced to rezarufin (emission 560 nm). NAD^+ levels were quantitated using a standard curve using known NAD^+ concentrations. NAD^+ concentrations are determined to nmol NAD^+/10^6 cells.

Test [4] deals with tissue NAD concentrations. The test is described as follows: Tissue NAD concentrations in mice 4 h after i.p. injection (cycling assay). In kind it is in vivo. Particulars: 500 mg/kg i.p. single dose, vs PBS control. On the procedure:
Sterile solutions of O-methyl-NaMN and O-ethylNaMN were prepared by combination with phosphate buffered saline for injection into mice. Mice were injected by intraperitoneal injection at a single dosage of 500 mg/kg. All mice were weighed to achieve correct injection volume. Each group was composed of 5 mice, and mice were sacrificed at 4 hours. Control mice received only PBS. At sacrifice, mice were first injected with an anesthetic dose of ketamine to obtain blood by cardiac puncture. Then mice were euthanized and tissues harvested and frozen immediately in liquid nitrogen.
To determine tissue NAD concentrations, tissues were weighed and pulverized in liquid nitrogen. Perchloric acid (7%) was then added to pulverized tissue samples and neutralized by NaOH and 250 mM potassium phosphate buffer pH 8.5. Samples were pelleted to remove insoluble material. NAD concentrations were determined by cycling assay as published (Li et al., Methods in molecular biology 1241, 39-48, doi:10.1007/978-1-4939-1875-1_4 (2015)). […] This property is desirable, as effects expected from NAD enhancement in muscle include mitochondrial biogenesis and improved insulin sensitivity, as noted for other agents that increase NAD concentrations in this tissue^3. In fact, the extent of NAD raising exceeds those observed for other agents.

The test system of test [5] is C2C12 cells. The test is described as follows: Cellular NAD at 14 h in C2C12 cells (cycling assay). In kind it is cell-based, murine. Also on record: cellular NAD: unit not given here. On the procedure:
(§2) Neu2a, HEK293, HEPG2 and C2C12 cells were cultured and the dosage of the corresponding compound was increased by amounts of 0, 100 μM, 400 μM and 800 μM for each cell line. Each experiment was performed in triplicate. Cells were incubated for a period of 14 hr. At termination of incubation, media was removed and cells were treated with trypsin to gently detach and cells counted. Cell pellets were obtained by centrifugation, and then […] of 7% perchloric acid was added to extract NAD. Extracts obtained were then neutralized by addition of NaOH and 250 mM potassium phosphate buffer pH 8.5. NAD was determined by a cycling assay that measures NAD concentrations by comparison to a standard curve (Li et al., 2015).

Test [6] concerns HEK293 cells. The test is described as follows: Cellular NAD at 14 h in HEK293 cells (cycling assay). Also on record: unit not given here. It is filed as cell-based, human. As for the experimental part:
as §2

Test [7] deals with HEPG2 cells. The test is described as follows: Cellular NAD at 14 h in HEPG2 cells (cycling assay). In kind it is cell-based. Also on record: unit not given here. On the procedure: as §2
In test [8] the test system is Neu2a cells. Kind of test: Cellular NAD at 14 h in Neu2a cells (cycling assay). Also on record: cellular NAD: unit not given here. In kind it is cell-based. As for the experimental part:
as §2

Where “and” joins values, the source holds several entries; their conditions need not be identical. Equal entries are not always repeated.

Regarding `NC(=O)c1ccc[n+]([C@@H]2O[C@H](CO)[C@@H](O)[C@H]2O)c1` [NR, Nicotinamide riboside], the “intracellular NAD+ content vs untreated cells” value in test [1] and in test [2] was “increased NAD^+ contents in cells” each time.

`O=C(O)c1ccc[n+]([C@@H]2O[C@H](COP(=O)(O)O)[C@@H](O)[C@H]2O)c1` [NaMN, nicotinic acid mononucleotide]: the “intracellular NAD+ content vs untreated cells” value in test [1] and in test [2] was “No intracellular increase in NAD^+” throughout.

Consider `CCOC(=O)c1ccc[n+]([C@@H]2O[C@H](COP(=O)([O-])O)[C@H](O)[C@@H]2O)c1` [O-EtNaMN, ((2R,3R,4S,5R)-3,4-dihydroxy-5-(3-(ethoxycarbonyl)pyridin-1-ium-1-yl)tetrahydrofuran-2-yl)methyl hydrogen phosphate], for which the “NAD+ Concentration” value in test [3] (HEK293, 250 μM EtNaMN) is on record as 220 μM ± 42 μM; in test [3] (HEK293, 500 μM EtNaMN), 270 μM ± 35 μM. Moreover, the “NAD+ Concentration relative to control” value was 1.29 and 1.29 ± 0.24 in test [3] (HEK293, 250 μM EtNaMN); 1.59 and 1.59 ± 0.21 in test [3] (HEK293, 500 μM EtNaMN). Also, in test [4], the “increase in tissue NAD, blood” value is given as “increases in blood were not apparent”. The “increase in tissue NAD, kidney” value in test [4] is “approximately twofold”. Besides, the “increase in tissue NAD, liver” value in test [4] (liver) is listed as “greater than twofold”. Also, the “increase in tissue NAD, skeletal muscle” value in test [4] was “no apparent effect”. In addition, the “increase in NAD concentrations vs control” value in test [5] (800 μM, cell line not given, figures fit C2C12) was 68%. In addition, the “cellular NAD” value is given as 1886 ± 183 in test [5] (C2C12, 100 μM); 1766 ± 69.5 in test [5] (C2C12, 400 μM); 2320 ± 208 in test [5] (C2C12, 800 μM); 1128 ± 95 in test [6] (HEK293, 100 μM); 1144 ± 132 in test [6] (HEK293, 400 μM); 1133 ± 168 in test [6] (HEK293, 800 μM). Further, the “cellular NAD” value was determined as 2222 ± 99 in test [7] (HEPG2, 100 μM); 2331 ± 429 in test [7] (HEPG2, 400 μM); 2287 ± 181 in test [7] (HEPG2, 800 μM); 1624 ± 24 in test [8] (100 μM); 1727 ± 40.8 in test [8] (400 μM); 1744 ± 151 in test [8] (800 μM). In test [8] (100 μM), the “increase in cellular NAD vs control” value is given as ~40%. Further, the “increase in cellular NAD concentrations vs control” value in test [8] (800 μM) is recorded as 50%.

For the compound `COC(=O)c1ccc[n+]([C@@H]2O[C@H](COP(=O)([O-])O)[C@H](O)[C@@H]2O)c1` [O-MeNaMN, ((2R,3R,4S,5R)-3,4-dihydroxy-5-(3-(methoxycarbonyl)pyridin-1-ium-1-yl)tetrahydrofuran-2-yl)methyl hydrogen phosphate], the “increase in tissue NAD, blood” value in test [4] was “Neither ethyl nor methyl derivatives appeared active as NAD enhancers in blood”. For the same compound, the “increase in tissue NAD, kidney” value in test [4] is on record as ~2.5 fold. Moreover, in test [4], the “increase in tissue NAD, skeletal muscle” value is listed as “unique capability to increase skeletal muscle NAD concentrations”. Further, the “cellular NAD” value in test [5] (C2C12, 100 μM) is on record as 2864 ± 565; in test [5] (C2C12, 400 μM), 2596 ± 572; in test [5] (C2C12, 800 μM), 2574 ± 355; in test [6] (HEK293, 100 μM), 1178 ± 65; in test [6] (HEK293, 400 μM), 947 ± 101; in test [6] (HEK293, 800 μM) it was 1440 ± 204. Besides, the “cellular NAD” value is recorded as 2227 ± 280 in test [7] (HEPG2, 100 μM); 1663 ± 61 in test [7] (HEPG2, 400 μM); 2383 ± 155 in test [7] (HEPG2, 800 μM); 1204 ± 158 in test [8] (100 μM); 1523 ± 145 in test [8] (400 μM); 2125 ± 187 in test [8] (800 μM). For the same compound, the “increase in cellular NAD concentrations vs control” value in test [5] (all concentrations tested (100, 400, 800 μM), cell line not given, figures fit C2C12) is given as “at least 70%”. In test [8] (800 μM), the “increase in cellular NAD concentrations vs control (fold, in words)” value is “more than two fold”.

Source of the values: US20210388018A1, “METHYL AND ETHYL NICOTINATE-RIBOSIDE-5-PHOSPHATES, PREPARATION THEREOF AND METHODS OF USE THEREOF” (Cornell University, priority 2018, published 2021).
